Test results reported in patent US20120301551A1, “COMPOUNDS AND COMPOSITIONS FOR TREATING NEURONAL DEATH OR NEUROLOGICAL DYSFUNCTION” (Neurotech Pharmaceuticals Co., Ltd., priority 2005, published 2012).
Several values for one entry are separate records, joined by “and”; a condition that tells them apart may be missing. Identical values can stand only once.

How the values were obtained:
[1] = test system: G93A transgenic mice; format: in vivo, mouse
Protocol: Animals were daily fed with 2-hydroxy TTBA (30 mg/kg/d), 0.2% lithium carbonate (200 mg/kg/d, Li), or a combination of both (2-hydroxy TTBA+Li) from 8 weeks of age in diet.
Animals were daily fed with 2-hydroxy TTBA (30 mg/kg/d), 0.2% lithium carbonate (Li), or a combination of both (2-hydroxy TTBA+Li) from 8 weeks of age in diet.
C & D: (C) Bright-field photomicrographs of cresyl violet-stained ventral horn sections from the wild type (a), or G93AA transgenic mice treated with vehicle (b), or with a combination of 2-hydroxy TTBA+Li (c) at 16 weeks of age.

[2] = test system: gastric mucous membrane; test: gastric mucous membrane damage after oral administration; format: in vivo; settings: 1,000 mg/kg orally administered
Protocol: FIG. 10 is results showing degrees of the gastric mucous membrane damage. Test samples were orally administered in a different dose. […] Aspirin was used as control.
Conventional NSAIDs have side effects causing damages to the gastric mucous membrane. Therefore, it was evaluated whether chemical 01 having anti-inflammatory effect causes the gastric damage or not. 30, 100 or 300 mg/kg of aspirin was orally administered as control.

[3] = test system: APPswe/PS1deltaE9 double transgenic mice; test: Morris water maze in APPswe/PS1deltaE9 double transgenic mice; format: in vivo, mouse; settings: 25 mg/kg/day chemical 01 or 62.5 mg/kg/day ibuprofen for 14.5 months (3~17.5 months)
Protocol: After administration of 14.5 months, the cognitive function was analyzed by Morris water maze test like example 10-3-1 (mean±SEM, n=3-5).
17.5 month-old APPswe/PS1deltaE9 double transgenic mice were fed chow alone (saline only), or containing 25 mg/kg/day of chemical—01, for […] (3˜17.5 month).
The cognitive function was analyzed by Morris water maze test. Mice ware trained to perform a hidden platform task in the Morris water maze. The latency to find the platform was recorded for each mouse.

[4] = test system: APPswe/PS1deltaE9 double transgenic mice; test: brain Aβ40/Aβ42 levels in APPswe/PS1deltaE9 double transgenic mice (ELISA); format: in vivo, mouse
Protocol: SDS-soluble/insoluble Aβ40 or Aβ42 levels were analyzed by colorimetric sandwich ELISA kit (BIOSOURCE, Camarillo, Calif.).

[5] = test system: Tg2576 transgenic mice; test: brain Aβ42/Aβ40 levels in Tg2576 transgenic mice (ELISA); format: in vivo, mouse; settings: 25 mg/kg/d for 8 months (9~17 months)
Protocol: 17 month-old Tg2576 transgenic mice were fed chow alone, or containing 25 mg/kg/day of chemical 01, for 8 months before being sacrificed (9˜17 months). The level of Aβ42 or Aβ40 protein was quantitatively analyzed by colorimetric sandwich ELISA kit (BIOSOURCE, Camarillo, Calif.) (mean±SEM, n=2).
17 month-old Tg2576 transgenic mice were fed chow alone (saline only), or containing 25 mg/kg/day of chemical—01, for 8 months before being sacrificed (9˜17 month). SDS-soluble/insoluble Aβ42 or Aβ40 levels were analyzed by colorimetric sandwich ELISA kit (BIOSOURCE, Camarillo, Calif.).

[6] = test system: mesencephalic nerve cell cultures; test: dopaminergic nerve cell death by LPS in mesencephalic cultures ([3H]DA uptake); format: cell-based; settings: 5 ng/ml LPS; 0-100 uM; 7 days
Protocol: Mesencephalic nerve cell cultures were pre-treated with 5 ng/ml of LPS for 30 minutes to make a cull culture model of Parkinson's disease, and then 0-100 uM of chemical 01 were added. 7 days after administration, [^3H]DA uptake was evaluated to quantify the death of the nerve cell (mean±SEM, n=4 culture well/each group).

[7] = test system: C57/BL6 mice; test: microglia activation in MPTP mouse model of Parkinson's disease (CD11b); format: in vivo; settings: 50 mg/kg intraperitoneal, MPTP 40 mg/kg s.c., two days
Protocol: MPTP (40 mg/kg) was subcutaneously injected into C57/BL6 mice (male/8 week-old). Some of the mice were administered with 50 mg/kg of chemical 01 through intraperitoneal injection 30 minutes before the injection of MPTP everyday. Two days later, brain tissue was extracted and immunostained with CD11b. After reaction, DAB (diaminobenzidine) was used for chromograph, and then the activation degree of microglia (a marker of inflammation in brain disease model) was evaluated with optical microscope (FIG. 14E).

[8] = test system: beta-amyloid (Aβ42); test: suppression of beta-amyloid (Aβ42) production in CHO cells (ELISA); format: cell-based, Chinese hamster; settings: Cricetulus griseus; CHO cells stably transfected with human wild APP695 and PS1ΔExon9; culture medium, ELISA; read-out: Aβ42 lowering effect (IC50)
Protocol: The suppressing effects of many drug candidates on production of beta-amyloid were evaluated in CHO cell line having the increased level of beta-amyloid. Results were shown as IC50 (uM) (Item C of Table 3 below).
In the Table 3, A, B and C mean neuron protecting effect against Fe^+2, suppressing effect on production of NO and suppressing effect on production of beta-amyloid, respectively. The term “ND” means “Not determined.”
Cells were treated with increasing concentrations of various chemicals in Chinese hamster ovary (CHO) cells stably transfected with human wild APP695 and the PS1ΔExon9, and analyzed Aβ42 levels in culture medium by colorimetric sandwich ELISA kit (BIOSOURCE, Camarillo, Calif.). In CHO cells, IC50 of Chemical—01-08 on Aβ42 lowering effect was 20-100 uM (Table 4).

[9] = DPPH free radical scavenging; format: biochemical
From the text: Free radical scavenging activity of chemical 01 was directly evaluated with 1,1-diphenyl-2-picrylhydrazil (DPPH, a stable free radical).

[10] = test system: G93A mouse; test: microglia number and activation in G93A mouse (TOMATO Lectin); format: in vivo; settings: 5 mg/kg/day or 20 mg/kg/day; lumbar ventral horn
Protocol: Number and activation degree of microglia (a marker of inflammation in brain disease animal model) expressed in the lumbar ventral horn of G93A mouse were evaluated with TOMATO Lectin dye. In G93A mouse, number of microglia was increased and microglia was more activated compared to the wild type mouse. Treatment with 5 mg/kg/day or 20 mg/kg/day of chemical 01 decreased the increase of number and activation degree of microglia (FIG. 13F).

[11] = 2-hydroxy TTBA 30 mg/kg/d, 0.2% lithium carbonate, or both, in diet from 8 weeks of age, n=13

SMILES | Mortality (survival) [1, 11] | Onset from PaGE [1, 11] | Onset from Rotarod [1, 11] | weight loss, % of the wild type ([1]; G93A mice at 18 weeks of age, oral administration in diet) [%] | extension reflex, motor strength, and coordination ([1]; G93A mice, drug in diet) | degeneration (loss) of ventral motor neurons in lumbar spinal cord ([1]; at 16 weeks of age) [%] | motor performance versus vehicle-treated control ([1]; from 11 weeks to 18 weeks, in the diet) | gastric side effect (damage of the gastric mucous membrane) [2] | gastric side effect (damage of the gastric mucous membrane) ([2]; listed as Chemical 01) | escape latency / cognitive function (Morris water maze) [3] | SDS-soluble/insoluble Aβ40 or Aβ42 levels, in words ([4]; 25 mg/kg/d chemical 01 or 62.5 mg/kg/day ibuprofen for 14.5 months) | reduction in SDS-insoluble Aβ40 levels ([4]; 25 mg/kg/day for 4 months (from 8.5 to 12.5 month-old)) [%] | reduction in SDS-insoluble Aβ40 levels ([4]; 25 mg/kg/day for 7 months (from 3.5 to 10.5 months)) [%] | SDS-soluble/insoluble Aβ42 and Aβ40 levels, in words [5] | SDS-soluble/insoluble Aβ42 and Aβ40 levels, in words ([5]; listed as chemical—01) | dopaminergic nerve cell death caused by LPS [6] | activity of microglia caused by MPTP [7] | IC50 [8] [µM] | IC50 [9] [µM] | increase of number and activation degree of microglia [10]
O=C(O)c1cc(NCc2c(F)c(F)c(C(F)(F)F)c(F)c2F)ccc1O [2-Hydroxy-TTBA, 2-hydroxy-5-(2,3,5,6-tetrafluoro-4-trifluoromethyl-benzylamino)-benzoic acid] | 143.8 days and 143.8^a ± 2.83 days | 114.1 days and 114.1^a ± 2.02 days | 112.3 days and 112.3^a ± 2.89 days | 41 | improved | 57 | better motor performance | – | – | – | – | – | – | – | – | – | – | – | – | –
O=C(O)c1cc(NCCc2ccc(C(F)(F)F)cc2)ccc1O [chemical 01, 2-Hydroxy-5-[2-(4-trifluoromethyl-phenyl)-ethylamino]-benzoic acid] | – | – | – | – | – | – | – | did not cause damage of the gastric mucous membrane | did not cause the gastric side effect | shorter | reduced | 27 | 42 | decreased | reduced | dose-dependent manner | decreased | 19.6 | 9.55 | decreased
